Source: patent publication US11789029B2, “Temporal traumatic brain injury biomarkers and methods of use thereof” (ARIZONA BOARD OF REGENTS ON BEHALF OF ARIZONA STATE …, priority 2019, dated 2023)
Entries after “also recorded” stand apart in the source; their conditions may differ. One block for each sequence: values may come before it. No end group written: not given here. bromoacetamide scaffold = not defined here

Key:
tissue lysates = assay: Immunoprecipitation-mass spectrometry with HCDR3 constructs as capture antibodies; type: binding, Mus musculus; conditions: A2 with 1 dpi tissue lysates, SA1 with 7 dpi tissue lysates
From the text: (§1) CCI and sham surgeries were completed as described previously. Mice were sacrificed at 1 d, 7 d, or 21 d post-injury (n=3/group) via transcardial perfusion with phosphate buffer, pH 7.4. The ipsilateral hemisphere of the brain was immediately dissected and homogenized in chilled lysis buffer (1×PBS, 1% Triton, protease inhibitor cocktail). Protein concentration of the homogenates was quantified with the Pierce BCA Protein Assay Kit (Thermo Fisher).
(§2) Streptavidin-coupled Dynabeads (Thermo Fisher) were washed with 1×PBST with 0.1% Tween and incubated with 1 mg/mL tissue lysate for 1 hour at room temperature. Pre-cleared lysate was collected after separation from magnetic beads and incubated with 450 pmol of HCDR3-construct rotating overnight at 4° C. to form the immune complex. The immune complex was then incubated with Streptavidin-coupled Dynabeads for 1 hour at room temperature before antigen was eluted from beads by heating sample at 95° C. with SDS PAGE running buffer. Samples were run on a pre-cast 12% SDS-PAGE gel (Bio-Rad) and bands were excised. Gel bands were processed by ASU Biodesign Mass Spectrometry Facility for digestion and protein identification with the Thermo Orbitrap Fusion Lumos (Thermo Fisher).
UniProt IDs of identified proteins were uploaded to the PANTHER classification system and searched against the Mus musculus reference database. […]

[1] = biological target: T1, Endoplasmic reticulum chaperone BiP (Mus musculus, UniProt P20029); assay: Immunoprecipitation-mass spectrometry, candidate protein; type: binding
T1 construct: The ipsilateral hemisphere of the brain was immediately dissected and homogenized in chilled lysis buffer; from tissue; host or cells: ipsilateral brain hemisphere lysate of CCI or sham mice
T1 sequence (P20029 20-655): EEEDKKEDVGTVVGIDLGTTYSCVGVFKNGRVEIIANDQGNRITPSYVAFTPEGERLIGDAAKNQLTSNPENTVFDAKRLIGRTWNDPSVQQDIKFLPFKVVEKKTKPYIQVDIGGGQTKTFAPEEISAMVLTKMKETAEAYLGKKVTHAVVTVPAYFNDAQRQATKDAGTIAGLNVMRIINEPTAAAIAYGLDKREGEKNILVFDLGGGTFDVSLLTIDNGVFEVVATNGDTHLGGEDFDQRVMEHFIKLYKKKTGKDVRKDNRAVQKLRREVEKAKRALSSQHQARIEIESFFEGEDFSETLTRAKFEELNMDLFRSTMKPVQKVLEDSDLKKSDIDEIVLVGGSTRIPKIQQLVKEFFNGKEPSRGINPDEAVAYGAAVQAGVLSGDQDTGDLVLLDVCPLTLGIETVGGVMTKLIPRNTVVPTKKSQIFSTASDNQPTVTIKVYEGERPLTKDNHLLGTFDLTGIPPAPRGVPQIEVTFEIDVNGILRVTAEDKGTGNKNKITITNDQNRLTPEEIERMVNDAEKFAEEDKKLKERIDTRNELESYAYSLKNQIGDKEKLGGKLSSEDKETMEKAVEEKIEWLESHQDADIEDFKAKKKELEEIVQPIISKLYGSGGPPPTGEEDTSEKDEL
From the text: as §1, §2
(§3) UniProt IDs of identified proteins were uploaded to the PANTHER classification system and searched against the Mus musculus reference database. Ontological assessments to characterize cellular localization, molecular function, biological processes, and pathways were conducted with PANTHER Overrepresentation test (Fisher's Exact test, p<0.05 using Benjamini Hochberg False Discovery Rate correction) with the GO Ontology database (released 2019-10-08).

[2] = biological target: T2, Heat shock cognate 71 kDa protein (Mus musculus, UniProt P63017); assay: as above; type: binding
T2 construct: The ipsilateral hemisphere of the brain was immediately dissected and homogenized in chilled lysis buffer; from tissue; host or cells: ipsilateral brain hemisphere lysate of CCI or sham mice
T2 sequence (P63017 whole entry): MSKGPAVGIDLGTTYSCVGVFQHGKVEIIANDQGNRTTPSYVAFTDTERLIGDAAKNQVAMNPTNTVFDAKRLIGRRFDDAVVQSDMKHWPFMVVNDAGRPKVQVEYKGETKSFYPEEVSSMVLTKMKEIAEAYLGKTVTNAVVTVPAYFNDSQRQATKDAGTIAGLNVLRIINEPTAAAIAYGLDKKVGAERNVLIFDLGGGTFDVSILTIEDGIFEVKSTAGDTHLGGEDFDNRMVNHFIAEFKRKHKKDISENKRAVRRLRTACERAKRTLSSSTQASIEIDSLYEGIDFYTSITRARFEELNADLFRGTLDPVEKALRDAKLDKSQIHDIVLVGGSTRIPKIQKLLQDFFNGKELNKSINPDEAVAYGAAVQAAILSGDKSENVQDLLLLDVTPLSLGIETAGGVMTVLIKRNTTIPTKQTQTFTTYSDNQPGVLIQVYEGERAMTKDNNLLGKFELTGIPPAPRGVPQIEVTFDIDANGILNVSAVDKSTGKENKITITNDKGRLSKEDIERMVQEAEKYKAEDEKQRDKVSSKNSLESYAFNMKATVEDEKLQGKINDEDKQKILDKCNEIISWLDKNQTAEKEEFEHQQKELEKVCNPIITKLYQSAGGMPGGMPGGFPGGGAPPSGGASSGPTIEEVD
From the text: as §1, §2, §3

CCI injury sections = assay: Immunohistochemistry of biotinylated HCDR3 constructs on CCI injury sections; type: binding, mice; conditions: for bioreactivity of chronic injury targeting HCDR3 constructs: 21 dpi tissue sections, 5 μM construct, Triton-X permeabilization; for bioreactivity of control HCDR3 constructs on injured neural tissue: injured tissue at 1 or 7 days post-injury
Description: Mice were subject to CCI or sham (n=3 per group/sex) as described previously and perfused with 0.1 M phosphate buffer and 4% paraformaldehyde at specified timepoints. Brains were fixed overnight in 4% paraformaldehyde at 4° C. followed by immersion in 15% sucrose and then 30% sucrose. Brains were flash frozen on dry ice in optimal cutting temperature medium and stored at −80° C. Samples were sectioned coronally at 20 μm thickness.
Tissue sections were incubated with excess streptavidin and biotin to block endogenous biotin using an Endogenous Biotin blocking kit (Thermo Fisher Scientific). After permeabilization with either 0.2% Triton-X 100 or Tween-20, 5 μM of biotinylated HCDR3-construct was incubated on tissue overnight at 4° C. Simultaneously, sections that served as controls were incubated with control HCDR3-construct or 1×PBS. Tissue sections were washed in 1×PBS and incubated with Alexa Fluor 555 streptavidin at room temperature for 2 hours, followed by 1×PBS washes and DAPI incubation for 5 minutes. Slides were imaged using fluorescence microscopy with Leica software.
For NGS analysis, raw counts were first normalized to reads per million (RPM) to account for library differences. A normalized z-score was then used as a threshold to identify dAbs that were highly represented and specific to their distinct injury timepoint. Selected dAbs were then screened for enrichment factor and individual frequency. Fluorescence percentage per area was conducted with ordinary one way ANOVA followed by Dunnett's test for multiple comparisons. Statistical significance was determined as p<0.05. Identified proteins that met the false discovery rate (FDR) threshold of <0.01 were used in all ontological assessments to categorize biological processes and candidate pathways.

[3] = biological target: T3, citrate synthase, mitochondrial (Mus musculus, UniProt Q9CZU6); assay: Immunoprecipitation-mass spectrometry, candidate protein; type: binding
T3 construct: The ipsilateral hemisphere of the brain was immediately dissected and homogenized in chilled lysis buffer; from tissue; host or cells: ipsilateral brain hemisphere lysate of CCI or sham mice
T3 sequence (Q9CZU6 28-464): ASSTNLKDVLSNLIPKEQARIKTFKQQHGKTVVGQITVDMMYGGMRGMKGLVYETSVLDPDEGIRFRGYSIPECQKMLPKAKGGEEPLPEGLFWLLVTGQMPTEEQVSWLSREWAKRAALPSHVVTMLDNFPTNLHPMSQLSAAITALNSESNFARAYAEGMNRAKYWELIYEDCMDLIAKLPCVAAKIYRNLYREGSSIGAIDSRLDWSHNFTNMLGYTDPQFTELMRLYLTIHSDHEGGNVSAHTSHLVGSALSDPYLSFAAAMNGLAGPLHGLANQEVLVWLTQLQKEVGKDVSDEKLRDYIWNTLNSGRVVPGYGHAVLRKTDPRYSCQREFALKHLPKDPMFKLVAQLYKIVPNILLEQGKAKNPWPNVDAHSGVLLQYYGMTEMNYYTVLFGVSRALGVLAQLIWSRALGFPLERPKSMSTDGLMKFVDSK
From the text: as §1, §2, §3

[4] = biological target: T4, Succinate--CoA ligase [ADP-forming] subunit beta, mitochondrial (Mus musculus, UniProt Q9Z2I9); assay: as above; type: binding
T4 construct: The ipsilateral hemisphere of the brain was immediately dissected and homogenized in chilled lysis buffer; from tissue; host or cells: ipsilateral brain hemisphere lysate of CCI or sham mice
T4 sequence (Q9Z2I9 54-463): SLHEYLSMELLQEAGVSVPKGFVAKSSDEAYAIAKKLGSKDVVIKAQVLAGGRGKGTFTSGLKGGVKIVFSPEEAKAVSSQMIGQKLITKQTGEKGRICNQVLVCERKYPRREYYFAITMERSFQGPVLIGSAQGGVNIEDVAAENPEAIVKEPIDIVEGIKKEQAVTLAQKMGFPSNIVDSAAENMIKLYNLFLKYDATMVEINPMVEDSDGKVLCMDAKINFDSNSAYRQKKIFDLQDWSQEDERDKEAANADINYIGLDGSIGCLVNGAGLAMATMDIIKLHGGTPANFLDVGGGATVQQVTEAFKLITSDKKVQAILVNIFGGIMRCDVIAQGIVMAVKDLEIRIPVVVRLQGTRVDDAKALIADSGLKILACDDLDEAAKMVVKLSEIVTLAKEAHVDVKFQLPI
T4 sequence (Q9WUM5 35-346 partner): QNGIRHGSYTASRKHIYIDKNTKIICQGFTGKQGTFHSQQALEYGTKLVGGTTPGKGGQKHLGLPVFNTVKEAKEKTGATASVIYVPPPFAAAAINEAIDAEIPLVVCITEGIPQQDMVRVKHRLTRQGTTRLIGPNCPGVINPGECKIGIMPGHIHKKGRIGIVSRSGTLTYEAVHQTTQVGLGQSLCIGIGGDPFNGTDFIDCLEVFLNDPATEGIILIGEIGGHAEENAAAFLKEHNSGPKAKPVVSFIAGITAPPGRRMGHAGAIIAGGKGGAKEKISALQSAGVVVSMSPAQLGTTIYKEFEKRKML
From the text: as §1, §2, §3

# Peptides [1]: 6
# Peptides [2]: 6
Sequence: TDLAVAHPVRY (linker (positions not given here) via bromoacetamide scaffold; not fully specified; reading uncertain; also: cyclized on bromoacetamide scaffold with biotin, sites not given here) [SA1, 3, subacute stage; peptide cyclized on bromoacetamide scaffold containing biotin]
immunoprecipitation eluate separated by SDS-PAGE (tissue lysates): isolated proteins unique to the injury condition
stain in the peri-injury region of injured tissue (CCI injury sections; 7 days post-injury tissue): Positive stain; also recorded: positively binding
bioreactivity, 7 days post-injury versus 1 days post-injury or 21 days post-injury tissue (CCI injury sections; p=0.0993 (1 dpi), p=0.0780 (21 dpi)): No significant differences
localization of stain in sham brain sections (CCI injury sections; sham brain sections, p=0.0079 versus 7 days post-injury): not observed

Sequence: TDCQETPYELKS [CH2, 6, chronic injury]
bioreactivity of chronic injury targeting HCDR3 constructs (CCI injury sections): non-specific staining

Sequence: TGHEGENEMAS [HE-CDR3, reference compound]
bioreactivity of control HCDR3 constructs on injured neural tissue (CCI injury sections): no detectable bioreactivity

Sequence: TAERDARTFQY (linker (positions not given here) via bromoacetamide scaffold; not fully specified; reading uncertain; also: cyclized on bromoacetamide scaffold with biotin, sites not given here) [A1, 1, acute stage; peptide cyclized on bromoacetamide scaffold containing biotin]
IHC signal on injured tissue (CCI injury sections; fixed mouse brain tissue at 1 dpi): no detectable signal; also recorded: did not show detectable bioreactivity

Sequence: GGDTFRDASQSMHF [dAb-CDR3, reference compound]
bioreactivity of control HCDR3 constructs on injured neural tissue (CCI injury sections): no detectable bioreactivity

Sequence: RLVRESSQEHTLSS [CH1, 5, chronic injury]
bioreactivity of chronic injury targeting HCDR3 constructs (CCI injury sections): negligible bioreactivity

Sequence: GPLDGKEEELRF [SP-CDR3, reference compound]
bioreactivity of control HCDR3 constructs on injured neural tissue (CCI injury sections): no detectable bioreactivity

# Peptides [3]: 3
# Peptides [4]: 4
Sequence: SLYGSSRHTAPISF (linker (positions not given here) via bromoacetamide scaffold; not fully specified; reading uncertain; also: cyclized on bromoacetamide scaffold with biotin, sites not given here) [A2, 2, acute stage; peptide cyclized on bromoacetamide scaffold containing biotin]
immunoprecipitation eluate separated by SDS-PAGE (tissue lysates): isolated proteins unique to the injury condition
sensitivity and affinity to the peri-injury region (CCI injury sections; 1 day post-injury compared to sham, subacute, and chronic tissue sections): high sensitivity and affinity
bioreactivity determined by the fluorescence on 1 dpi tissue (CCI injury sections; in comparison to sham (p=0.0120) and 7 days post-injury tissue (p=0.0221)): significant bioreactivity
bioreactivity, 1 days post-injury versus 21 days post injury tissue (CCI injury sections; p=0.0658): No significant differences
